From patent US8889887B2, “Pentamethine cyanine fluorescent dyes, preparation methods and uses thereof” (Dalian University of Technology, priority 2011, dated 2014)
Where “and” joins values, the source holds several entries; their conditions need not be identical. Equal values may be shown once. Where a name gives a salt, the structure may show the parent alone.

Tests used:
Format in all cases: physicochemical
[1] = UV absorption and fluorescence emission spectra in different solvents; settings: for Φ fluorescence quantum yield (single peak) / Φ1 fluorescence quantum yield / Φ2 fluorescence quantum yield: reference Rhodamine B in ethanol; for λabs1 maximum absorption wavelength / λabs2 maximum absorption wavelength / λem1 maximum emission wavelength / λem2 maximum emission wavelength: 1 μM
Protocol: Firstly, stock solutions of 4 and 7 in DMSO were prepared respectively. Then sample solutions of 1 μM were prepared by diluting the mother liquors with corresponding chromatography grade solvent. UV absorption and fluorescence emission spectra of the sample solutions in different solvents were measured at room temperature, the results were shown in FIGS. 1A and 1B, respectively.

[2] = Viscosity experiments: absorption and emission spectra in glycerol-ethanol mixtures; settings: glycerol-ethanol mixtures
Protocol: (§1) Firstly, DMSO solutions of 4 and 7 having a concentration of 1.0×10^−3 M were prepared, respectively. The stock solution of […] was added into 10 mL glycerol-ethanol mixture, and ultrasonicated to remove bubbles. The solution stayed for 1 hour, and then absorption and emission spectra therefore were measured by using UV-visible spectrophotometer and fluorescence spectrophotometer, and fluorescence lifetime of solution with different viscosity was detected as well. UV-visible spectrophotometer, model: Hp8453; fluorescence spectrophotometer model: FP-6500; Fluorescence lifetime equipment: Horiba Jobin Yvon Fluoromax-4-p.
(§2) Glycerol-ethanol mixture was a mixture of glycerol and ethanol, Vglycerol: Vethanol were 1:9, 2:8, 3:7, 4:6, 5:5, 6:4, 7:3, 8:2 and 9:1.

[3] = Fluorescence lifetime in solutions with different viscosity
Protocol: as §1, §2

Which “Δλ Stokes Shift (single peak)” value ([1]; DMSO) does the source give for CCN1/C(=C/C=C/C=C/C2=[N+](CC)c3ccccc3C2(C)C)C(C)(C)c2ccccc21 [ethyl-Cy5, reference compound] here?
Its value is 13 nm.

And the “ε molar extinction coefficient (single peak)” value (“ε molar extinction coefficient” for short) ([1]; DMSO)?
The value was 272000 L/cm/mol.

What about the “λabs maximum absorption wavelength (single peak)” value ([1]; DMSO) of the same molecule?
Its value is 655 nm.

What about the “λem maximum emission wavelength (single peak)” value (from here on “λem maximum emission wavelength”) ([1]; DMSO) of the same molecule?
Its value is 668 nm.

What about the “Φ fluorescence quantum yield (single peak)” value (shortened to “Φ fluorescence quantum yield”) ([1]; DMSO) of the same molecule?
Its value is 0.33.

And the “Δλ Stokes Shift (single peak)” value ([1]; THF)?
The value was 9 nm.

What about the “ε molar extinction coefficient” value ([1]; THF) of the same molecule?
The value was 227000 L/cm/mol.

What about the “λabs maximum absorption wavelength (single peak)” value ([1]; THF) of the same molecule?
The value was 653 nm.

What about the “λem maximum emission wavelength” value ([1]; THF) of the same molecule?
Its value is 662 nm.

What about the “Φ fluorescence quantum yield” value ([1]; THF) of the same molecule?
The value was 0.37.

And the “Δλ Stokes Shift (single peak)” value ([1]; dichloromethane)?
Its value is 6 nm.

And the “ε molar extinction coefficient” value ([1]; dichloromethane)?
The value was 306000 L/cm/mol.

And the “λabs maximum absorption wavelength (single peak)” value ([1]; dichloromethane)?
The value was 661 nm.

What about the “λem maximum emission wavelength” value ([1]; dichloromethane) of the same molecule?
The value was 671 nm.

And the “Φ fluorescence quantum yield” value ([1]; dichloromethane)?
The value was 0.29.

And the “Δλ Stokes Shift (single peak)” value ([1]; ethanol)?
Its value is 11 nm.

What about the “ε molar extinction coefficient” value ([1]; ethanol) of the same molecule?
The value was 302000 L/cm/mol.

And the “λabs maximum absorption wavelength (single peak)” value ([1]; ethanol)?
The value was 652 nm.

And the “λem maximum emission wavelength” value ([1]; ethanol)?
The value was 663 nm.

And the “Φ fluorescence quantum yield” value ([1]; ethanol)?
Its value is 0.27.

What about the “Δλ Stokes Shift (single peak)” value ([1]; methanol) of the same molecule?
Its value is 10 nm.

And the “ε molar extinction coefficient” value ([1]; methanol)?
The value was 259000 L/cm/mol.

And the “λabs maximum absorption wavelength (single peak)” value ([1]; methanol)?
The value was 649 nm.

What about the “λem maximum emission wavelength” value ([1]; methanol) of the same molecule?
The value was 659 nm.

What about the “Φ fluorescence quantum yield” value ([1]; methanol) of the same molecule?
Its value is 0.22.

What about the “Δλ Stokes Shift (single peak)” value ([1]; water) of the same molecule?
Its value is 8 nm.

What about the “ε molar extinction coefficient” value ([1]; water) of the same molecule?
Its value is 227000 L/cm/mol.

What about the “λabs maximum absorption wavelength (single peak)” value ([1]; water) of the same molecule?
The value was 648 nm.

And the “λem maximum emission wavelength” value ([1]; water)?
Its value is 656 nm.

What about the “Φ fluorescence quantum yield” value ([1]; water) of the same molecule?
The value was 0.13.

With CCN1/C(=C/C=C(C=O)/C=C/C2=[N+](CC)c3ccccc3C2(C)C)C(C)(C)c2ccccc21 [compound 4, 1,5-di(1-N-ethyl-3,3-dimethyl-2,3-H-lindoline)-3-formyl-1,3,5-pentatriene chloride quaternary ammonium salt cyanine dye] as the molecule, how does the “Δλ1 Stokes Shift (λem1 − λabs1)” value ([1]; DMSO) read?
The value was 51 nm.

And the “Δλ2 Stokes Shift (λem2 − λabs2)” value ([1]; DMSO)?
The value was 17 nm.

What about the “Δλ3 Stokes Shift (λem2 − λabs1)” value ([1]; DMSO) of the same molecule?
The value was 230 nm.

What about the “ε1 molar extinction coefficient” value ([1]; DMSO) of the same molecule?
Its value is 15000 L/cm/mol.

What about the “ε2 molar extinction coefficient” value ([1]; DMSO) of the same molecule?
The value was 108500 L/cm/mol.

And the “λabs1 maximum absorption wavelength” value ([1]; DMSO)?
The value was 400 nm.

What about the “λabs2 maximum absorption wavelength” value ([1]; DMSO) of the same molecule?
The value was 613 nm.

And the “λem1 maximum emission wavelength” value ([1]; DMSO)?
The value was 451 nm.

And the “λem2 maximum emission wavelength” value ([1]; DMSO)?
Its value is 630 nm.

What about the “Φ1 fluorescence quantum yield” value ([1]; DMSO) of the same molecule?
Its value is 0.0158.

And the “Φ2 fluorescence quantum yield” value ([1]; DMSO)?
The value was 0.0224.

What about the “Δλ1 Stokes Shift (λem1 − λabs1)” value ([1]; acetonitrile) of the same molecule?
The value was 54 nm.

What about the “Δλ2 Stokes Shift (λem2 − λabs2)” value ([1]; acetonitrile) of the same molecule?
Its value is 19 nm.

What about the “Δλ3 Stokes Shift (λem2 − λabs1)” value ([1]; acetonitrile) of the same molecule?
Its value is 229 nm.

What about the “ε1 molar extinction coefficient” value ([1]; acetonitrile) of the same molecule?
Its value is 11200 L/cm/mol.

What about the “ε2 molar extinction coefficient” value ([1]; acetonitrile) of the same molecule?
The value was 93500 L/cm/mol.

And the “λabs1 maximum absorption wavelength” value ([1]; acetonitrile)?
Its value is 397 nm.

What about the “λabs2 maximum absorption wavelength” value ([1]; acetonitrile) of the same molecule?
The value was 607 nm.

What about the “λem1 maximum emission wavelength” value ([1]; acetonitrile) of the same molecule?
The value was 451 nm.

What about the “λem2 maximum emission wavelength” value ([1]; acetonitrile) of the same molecule?
The value was 626 nm.

And the “Φ1 fluorescence quantum yield” value ([1]; acetonitrile)?
The value was 0.0062.

What about the “Φ2 fluorescence quantum yield” value ([1]; acetonitrile) of the same molecule?
The value was 0.0071.

What about the “Δλ1 Stokes Shift (λem1 − λabs1)” value ([1]; dichloromethane) of the same molecule?
The value was 55 nm.

What about the “Δλ2 Stokes Shift (λem2 − λabs2)” value ([1]; dichloromethane) of the same molecule?
The value was 29 nm.

What about the “Δλ3 Stokes Shift (λem2 − λabs1)” value ([1]; dichloromethane) of the same molecule?
Its value is 255 nm.

What about the “ε1 molar extinction coefficient” value ([1]; dichloromethane) of the same molecule?
The value was 16000 L/cm/mol.

What about the “ε2 molar extinction coefficient” value ([1]; dichloromethane) of the same molecule?
Its value is 89700 L/cm/mol.

What about the “λabs1 maximum absorption wavelength” value ([1]; dichloromethane) of the same molecule?
The value was 399 nm.

What about the “λabs2 maximum absorption wavelength” value ([1]; dichloromethane) of the same molecule?
Its value is 625 nm.

What about the “λem1 maximum emission wavelength” value ([1]; dichloromethane) of the same molecule?
The value was 454 nm.

And the “λem2 maximum emission wavelength” value ([1]; dichloromethane)?
The value was 654 nm.

What about the “Φ1 fluorescence quantum yield” value ([1]; dichloromethane) of the same molecule?
The value was 0.0060.

What about the “Φ2 fluorescence quantum yield” value ([1]; dichloromethane) of the same molecule?
Its value is 0.0231.

What about the “Δλ1 Stokes Shift (λem1 − λabs1)” value ([1]; ethanol) of the same molecule?
The value was 52 nm.

What about the “Δλ2 Stokes Shift (λem2 − λabs2)” value ([1]; ethanol) of the same molecule?
The value was 40 nm.

What about the “Δλ3 Stokes Shift (λem2 − λabs1), pseudo-Stokes Shift” value ([1]; ethanol) of the same molecule?
The value was 254 nm.

What about the “ε1 molar extinction coefficient” value ([1]; ethanol) of the same molecule?
The value was 13800 L/cm/mol.

What about the “ε2 molar extinction coefficient” value ([1]; ethanol) of the same molecule?
Its value is 97500 L/cm/mol.

What about the “λabs1 maximum absorption wavelength” value ([1]; ethanol) of the same molecule?
The value was 399 nm.

What about the “λabs2 maximum absorption wavelength” value ([1]; ethanol) of the same molecule?
Its value is 613 nm.

And the “λem1 maximum emission wavelength” value ([1]; ethanol)?
The value was 451 nm.

What about the “λem2 maximum emission wavelength” value ([1]; ethanol) of the same molecule?
Its value is 653 nm.

And the “Φ1 fluorescence quantum yield” value ([1]; ethanol)?
The value was 0.0050.

And the “Φ2 fluorescence quantum yield” value ([1]; ethanol)?
Its value is 0.0108.

What about the “sensitivity to solvent polarity” value ([1]; low-viscosity solvents of different polarity) of the same molecule?
The value was “insensitive to solvent polarity”.

What about the “Δλ1 Stokes Shift (λem1 − λabs1)” value ([1]; methanol) of the same molecule?
The value was 51 nm.

And the “Δλ2 Stokes Shift (λem2 − λabs2)” value ([1]; methanol)?
The value was 42 nm.

What about the “Δλ3 Stokes Shift (λem2 − λabs1)” value ([1]; methanol) of the same molecule?
Its value is 250 nm.

And the “ε1 molar extinction coefficient” value ([1]; methanol)?
Its value is 14500 L/cm/mol.

What about the “ε2 molar extinction coefficient” value ([1]; methanol) of the same molecule?
The value was 99300 L/cm/mol.

What about the “λabs1 maximum absorption wavelength” value ([1]; methanol) of the same molecule?
Its value is 400 nm.

What about the “λabs2 maximum absorption wavelength” value ([1]; methanol) of the same molecule?
The value was 608 nm.

And the “λem1 maximum emission wavelength” value ([1]; methanol)?
The value was 451 nm.

And the “λem2 maximum emission wavelength” value ([1]; methanol)?
The value was 650 nm.

What about the “Φ1 fluorescence quantum yield” value ([1]; methanol) of the same molecule?
Its value is 0.0050.

And the “Φ2 fluorescence quantum yield” value ([1]; methanol)?
Its value is 0.0079.

And the “absorption peak, longer wavelength” value ([1]; solvent not stated)?
The value was 610 nm.

What about the “absorption peak, shorter wavelength” value ([1]; solvent not stated) of the same molecule?
Its value is 400 nm.

What about the “emission peak, longer wavelength” value ([1]; solvent not stated) of the same molecule?
Its value is 650 nm.

What about the “emission peak, shorter wavelength” value ([1]; solvent not stated) of the same molecule?
The value was 456 nm and 460 nm.

What about the “Δλ1 Stokes Shift (λem1 − λabs1)” value ([1]; water) of the same molecule?
The value was 47 nm.

What about the “Δλ2 Stokes Shift (λem2 − λabs2)” value ([1]; water) of the same molecule?
Its value is 43 nm.

What about the “Δλ3 Stokes Shift (λem2 − λabs1)” value ([1]; water) of the same molecule?
Its value is 230 nm.

And the “ε1 molar extinction coefficient” value ([1]; water)?
The value was 16800 L/cm/mol.

And the “ε2 molar extinction coefficient” value ([1]; water)?
The value was 62100 L/cm/mol.

What about the “λabs1 maximum absorption wavelength” value ([1]; water) of the same molecule?
The value was 413 nm.

What about the “λabs2 maximum absorption wavelength” value ([1]; water) of the same molecule?
The value was 600 nm.

What about the “λem1 maximum emission wavelength” value ([1]; water) of the same molecule?
Its value is 460 nm.

And the “λem2 maximum emission wavelength” value ([1]; water)?
Its value is 643 nm.

And the “Φ1 fluorescence quantum yield” value ([1]; water)?
Its value is 0.0023.

And the “Φ2 fluorescence quantum yield” value ([1]; water)?
Its value is 0.0032.

What about the “sensitivity of fluorescence intensity to solvent viscosity” value [2] of the same molecule?
The value was “quite sensitive to solvent viscosity”.

What about the fluorescence lifetime ([3]; 99% glycerol solution) of the same molecule?
Its fluorescence lifetime is 1450 ps.

And the fluorescence lifetime ([3]; pure ethanol)?
Its fluorescence lifetime is “lower than 50 ps”.
